Experiments:
[1] = tested on: Plasmodium falciparum; assay: Antimalarial activity against synchronous ring stage Plasmodium falciparum 3D7 infected in human Erythrocyte assessed as inhibition of parasite growth incubated for 48 hrs by [3H]-hypoxanthine incorporation assay; assay type: functional, organism-based; details: 3D7, Erythrocyte
[2] = Cytotoxicity against human NFF cells assessed as reduction in cell viability incubated for 72 hrs by SRB assay; assay type: toxicity, cell-based
[3] = tested on: Plasmodium falciparum; assay: Antimalarial activity against synchronous ring stage Plasmodium falciparum 3D7 infected in human Erythrocyte assessed as inhibition of parasite growth incubated for 96 hrs by [3H]-hypoxanthine incorporation assay; assay type: functional, organism-based; details: 3D7, Erythrocyte
[4] = Selectivity index, ratio of IC50 for cytotoxicity against human NFF cells to IC50 for antimalarial activity against synchronous ring stage Plasmodium falciparum 3D7 infected in human Erythrocyte assessed as inhibition of parasite growth incubated for 96 hrs; assay type: toxicity, cell-based; details: read-out: Ratio IC50
[5] = Selectivity ratio of IC50 for antimalarial activity against synchronous ring stage Plasmodium falciparum 3D7 infected in human Erythrocyte assessed as inhibition of parasite growth incubated for 48 hrs by [3H]-hypoxanthine incorporation assay to IC50 for antimalarial activity against synchronous ring stage Plasmodium falciparum 3D7 infected in human Erythrocyte assessed as inhibition of parasite growth incubated for 48 hrs by [3H]-hypoxanthine incorporation assay; assay type: functional

Compound | IC50 [1] [µM] | IC50 at 72 h [2] [µM] | IC50 [3] [µM] | selectivity ratio at 96 h [4] | Ratio IC50 [5]
CC(C)(C)OC(=O)[C@@H]1CCCN1c1nnc(S(=O)(=O)C2CCCCC2)o1 | > 25 | > 100 | 2.65 | > 38 | >9
O=S(=O)(c1nnc(N2CCCCC2)o1)C1CCCCC1 | > 12.5 | > 100 | 0.4 | > 250 | >32
CC1(C)CN(c2nnc(S(=O)(=O)C3CCCCC3)o2)CCO1 | > 25 | > 100 | 0.24 | > 417 | >105
CC(C)(C)OC(=O)N1CCN(c2nnc(S(=O)(=O)C3CCCCC3)o2)CC1 | > 50 | – | 2.73 | – | >18
O=S(=O)(c1nnc(N2CCN(CC(F)(F)F)CC2)o1)C1CCCCC1 | > 25 | – | 2.35 | – | >11
O=S(=O)(c1nnc(N2CC3CCC(C2)O3)o1)C1CCCCC1 | > 50 | > 100 | 0.1 | > 1000 | >500
O=S(=O)(c1nnc(N2CC3CCC2C3)o1)C1CCCCC1 (racemic) | > 25 | > 100 | 0.56 | > 179 | >45
O=S(=O)(c1nnc(N2CCOCC2)s1)C1CCCCC1 | > 50 | – | > 50 | – | –
O=S(=O)(c1nnc(N2CCC3(CCCO3)CC2)o1)C1CCCCC1 | > 50 | > 100 | 0.77 | > 135 | >65
CC(=O)N1CCN(c2nnc(S(=O)(=O)C3CCCCC3)o2)CC1 | > 50 | > 100 | 1.46 | > 69 | >34
CC1CN(c2nnc(S(=O)(=O)C3CCCCC3)o2)CCO1 (racemic) | > 25 | > 100 | 0.38 | > 263 | >66
CN1CCN(c2nnc(S(=O)(=O)C3CCCCC3)o2)CC1 | > 100 | – | 5.4 | – | >19
COC1CCN(c2nnc(S(=O)(=O)C3CCCCC3)o2)CC1 | > 50 | > 100 | 0.69 | > 145 | >72
O=S(=O)(c1nnc(N2CCc3ccccc32)o1)C1CCCCC1 | > 10 | > 25 | 1.12 | > 26 | >9
O=S(=O)(c1nnc(N2CC3CC2CO3)o1)C1CCCCC1 (racemic) | > 50 | > 100 | 1.58 | > 63 | >32
O=S(=O)(c1nnc(N2CCC(C(F)(F)F)CC2)o1)C1CCCCC1 | 22.1 | > 100 | 0.37 | > 270 | 61
O=S(=O)(c1nnc(N2CCCOCC2)o1)C1CCCCC1 | > 100 | > 100 | 0.75 | > 133 | >134
O=S(=O)(c1nnc(N2CCC(c3ccccc3)CC2)o1)C1CCCCC1 | > 100 | – | 13.5 | – | >7
Cc1ccc(C)c(CSc2nnc(N3CCOCC3)o2)c1 | > 50 | – | > 50 | – | –
CC1CCN(c2nnc(S(=O)(=O)C3CCCCC3)o2)CC1 | 39.3 | > 50 | 0.22 | > 227 | 182
O=S(=O)(c1nnc(N2CC3(CCOCC3)C2)o1)C1CCCCC1 | > 50 | > 100 | 0.11 | > 909 | >476
O=S(=O)(CC12CC3CC(CC(C3)C1)C2)c1nnc(N2CCCCC2)o1 | 13.7 | 30.5 | 0.4 | 76 | 35
N#CC1CCN(c2nnc(S(=O)(=O)C3CCCCC3)o2)CC1 | > 10 | > 100 | 0.49 | > 200 | >21
O=S(=O)(c1ccc(Cl)c(Cl)c1)c1nnc(N2CCOCC2)o1 | 13.1 | – | 24.6 | – | 0.5
C[C@@H]1CN(c2nnc(S(=O)(=O)C3CCCCC3)o2)C[C@H](C)O1 | > 25 | > 100 | 0.29 | > 345 | >85
Cc1ccc(C)c(C[S+]([O-])c2nnc(N3CCOCC3)o2)c1 (stereo unspecified) | 16.8 | – | 13.7 | – | 1
O=S(=O)(c1nnc(N2CCOCC2)o1)C1CCOCC1 | > 50 | > 100 | 7.09 | > 14 | >7

Compound | IC50 [1] [µM] | IC50 at 72 h [2] [µM] | IC50 [3] [µM] | selectivity ratio at 96 h [4] | Ratio IC50 [5]
CC1(C)CCCN(c2nnc(S(=O)(=O)C3CCCCC3)o2)C1 | 21.1 | > 100 | 0.04 | > 2500 | 527
CC1CCCCN1c1nnc(S(=O)(=O)C2CCCCC2)o1 (racemic) | > 12.5 | > 100 | 0.31 | > 277 | >40
CCOC(=O)C1CCCN(c2nnc(S(=O)(=O)C3CCCCC3)o2)C1 (racemic) | > 25 | > 100 | 0.93 | > 111 | >27
CC(C)(C)CS(=O)(=O)c1nnc(N2CCOCC2)o1 | > 10 | > 100 | 1.34 | > 79 | >8
O=S(=O)(CC1CCCC1)c1nnc(N2CCOCC2)o1 | > 10 | > 100 | 0.64 | > 158 | >16
O=S(=O)(Cc1ccc(Cl)c(Cl)c1)c1nnc(N2CCOCC2)o1 | 6.6 | – | 4.2 | – | 1.6
CC1CC(C)CN(c2nnc(S(=O)(=O)C3CCCCC3)o2)C1 (mixture of isomers) | > 12.5 | > 100 | 0.03 | > 4000 | >403
O=S(=O)(c1nnc(N2C3CCC2CC3)o1)C1CCCCC1 | 5.76 | 33.5 | 0.83 | 40 | 7
O=S(=O)(c1nnc(N2C3CCC2COC3)o1)C1CCCCC1 | > 12.5 | > 100 | 0.37 | > 270 | >34
CC1(C)CCN(c2nnc(S(=O)(=O)C3CCCCC3)o2)CC1 | > 25 | > 100 | 0.15 | > 1080 | >171
O=S(=O)(c1nnc(N2CCOCC2)o1)C1CC2CCC1C2 (racemic) | > 10 | > 100 | 0.28 | > 377 | >36
O=S(=O)(CC1(C(F)(F)F)CCC1)c1nnc(N2CCOCC2)o1 | 17 | – | 4.3 | – | 4
O=S(=O)(c1nnc(N2CCCC3(COC3)C2)o1)C1CCCCC1 | > 50 | > 100 | 0.54 | > 185 | >93
O=S(=O)(c1nnc(N2CCOCC2)o1)C1CCCC1 | > 50 | – | 5.82 | – | >9
Cl.O=S(=O)(c1nnc(N2CCOCC2)o1)C1CCNCC1 | > 50 | – | > 50 | – | 1
O=S(=O)(c1nnc(N2CCCCO2)o1)C1CCCCC1 | 8.24 | – | 18.4 | – | 0.4
O=S(=O)(c1nnc(N2CCCC2)o1)C1CCCCC1 | > 50 | > 100 | 3.53 | > 28 | >14
O=S1(=O)CCN(c2nnc(S(=O)(=O)C3CCCCC3)o2)CC1 | > 25 | – | 6.75 | – | >4
O=S(=O)(c1nnc(N2CCNCC2)o1)C1CCCCC1 | 57.9 | – | 3.58 | – | 16
O=S(=O)(c1nnc(N2C3CCCC2CC3)o1)C1CCCCC1 | > 25 | > 100 | 0.41 | > 246 | >61
CC1CCCN(c2nnc(S(=O)(=O)C3CCCCC3)o2)C1 (racemic) | > 12.5 | > 100 | 0.1 | > 1000 | >125
O=S(=O)(c1nnc(N2CCC(F)(F)CC2)o1)C1CCCCC1 | > 12.5 | > 100 | 0.72 | > 127 | >17
CC(C)(C)OC(=O)N1CCC(S(=O)(=O)c2nnc(N3CCOCC3)o2)CC1 | > 25 | > 100 | 5.05 | > 20 | >5
O=S(=O)(CC1(C(F)(F)F)CC1)c1nnc(N2CCOCC2)o1 | > 12.5 | – | 3.19 | – | >4
O=S(=O)(c1nnc(N2CCOc3ccccc32)o1)C1CCCCC1 | 4.65 | 21.4 | 2.06 | 10 | 2.3
O=S(=O)(c1nnc(N2CCC3(CC2)OCCO3)o1)C1CCCCC1 | > 50 | > 100 | 0.9 | > 111 | >56

From ChEMBL document CHEMBL5614431, “Discovery of 1,3,4-oxadiazoles with slow-action activity against Plasmodium falciparum malaria parasites” (Eur J Med Chem, 2024)
